Test results: US8772286B2, “MK2 inhibitors” (Merck Sharp & Dohme B.V., priority 2009, dated 2014)
In brackets after ≈: the same amount, converted by molar mass. Like-named read-outs stand apart in the source and are kept apart here.

Legend:
MK2 enzyme = target: T1, MK2 enzyme (Homo sapiens, UniProt P49137); experiment: MK2 enzyme activity, IMAP fluorescence polarization assay; assay type: biochemical; conditions: for pEC50, Formula (I): Table 2, compound of Formula (I) with amine-containing spiro ring
T1 construct: MK2 enzyme (active enzyme (peptide 46-end (Millipore))); purchased Millipore
Outline: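 Enzyme kept in KR buffer (10 mM Tris-HCl, 10 mM MgCl2, 0.01% Tween-20, 2 mM DTT, pH 7.2) and acting on a fluorescein-labeled peptide substrate; final compound range 10 μM to 0.316 nM. After 60 min at room temperature, FP at 535 nm was read. Signal as percent of the with/without-ATP control difference, and EC50 by curve fit.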

[1] = Solubility determination of MK2 inhibitors (kinetic aqueous solubility, UPLC); assay type: physicochemical; conditions: aqueous buffer (system solution from pION inc.), 22 °C, pH 7.4, aqueous buffer, kinetic from dmso stock
Outline: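 Kinetic shake-flask solubility (mg/L) at pH 7.4, room temperature (21-23° C.), 1% final DMSO from 10 mM DMSO stock, duplicates. Shaken 24 h, filtered (0.45 um), 1-propanol added to filtrate; dissolved compound quantified by UPLC-UV against external DMSO calibration line of the same compound.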

[2] = MK2 IMAP assay, 1 μM ATP, 30 min pre-incubation, 2 h room temperature, read-out: pEC50 value (converted)
[3] = pH 7.4, room temperature, about 1% DMSO, 24 h shaking, read-out: solubility
[4] = Table 2, comparison compound of Formula (XVI), spiro ring without amine, MK2 IMAP assay, read-out: pEC50, Formula (XVI) (converted)
[5] = Table 2, comparison compound of Formula (XVI), spiro ring without amine, pH 7.4, read-out: Solubility pH 7.4 (mg/L), Formula (XVI)
[6] = Table 2, compound of Formula (I) with amine-containing spiro ring, pH 7.4, read-out: Solubility pH 7.4 (mg/L), Formula (I)
[7] = Table 1, compound of Formula (I) with spiro ring, MK2 IMAP assay, read-out: pEC50, Formula (I) (converted)
[8] = Table 1, compound of Formula (I) with spiro ring, pH 7.4, read-out: Solubility pH 7.4 (mg/L), Formula (I)

T1 sequence (P49137 46-400 limits assumed): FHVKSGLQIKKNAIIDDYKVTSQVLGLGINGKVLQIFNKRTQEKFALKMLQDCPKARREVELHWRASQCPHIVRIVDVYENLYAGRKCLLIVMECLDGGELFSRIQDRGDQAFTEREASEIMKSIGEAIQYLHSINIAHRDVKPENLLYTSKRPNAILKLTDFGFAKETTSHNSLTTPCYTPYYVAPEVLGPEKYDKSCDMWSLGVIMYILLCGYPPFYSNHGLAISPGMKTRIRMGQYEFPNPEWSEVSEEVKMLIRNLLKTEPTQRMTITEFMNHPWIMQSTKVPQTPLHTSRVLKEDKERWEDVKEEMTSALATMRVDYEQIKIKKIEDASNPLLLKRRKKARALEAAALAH

Which EC50 (MK2 enzyme; [2]) does the source give for `O=C1NCC2(CCNCC2)c2[nH]c(-c3ccnc(-c4cc(Cl)cc(Cl)c4)n3)cc21` [1—25, 2′-(2-(3,5-dichlorophenyl)pyrimidin-4-yl)-5′,6′-dihydrospiro[piperidine-4,7′-pyrrolo[3,2-c]pyridin]-4′(1′H)-one] here?
Its EC50 is 3.16 to 31.6 nM.

And the solubility at 24 h [1, 3]?
The solubility at 24 h was no less than 50 mg/L.

For `CC(=O)Nc1ccc(-c2nccc(-c3cc4c([nH]3)C3(CCNCC3)CNC4=O)n2)cn1` [1—8, N-(5-(4-(4′-oxo-1′,4′,5′,6′-tetrahydrospiro[piperidine-4,7′-pyrrolo[3,2-c]pyridine]-2′-yl)pyrimidin-2-yl)pyridin-2-yl)acetamide], which EC50 (MK2 enzyme; [2]) is on record?
Its EC50 is 3.16 to 31.6 nM.

And the solubility at 24 h [1, 3]?
The solubility at 24 h was no less than 50 mg/L.

What does the source list for `O=C1NCC2(CCNCC2)c2[nH]c(-c3ccnc(-c4ccc(Oc5ccccc5)cc4)n3)cc21` [1—15, 2′-(2-(4-phenoxyphenyl)pyrimidin-4-yl)-5′,6′-dihydrospiro[piperidine-4,7′-pyrrolo[3,2-c]pyridin]-4′(1′H)-one]?
EC50 (MK2 enzyme; [2]): 3.16 to 31.6 nM; solubility at 24 h [1, 3]: ≥ 50 mg/L

Which EC50 (MK2 enzyme; [4]) does the source give for `O=C1NCC2(CCOCC2)c2[nH]c(-c3ccnc(-c4ccc5c(c4)OCO5)n3)cc21` [17_1 Formula (XVI)] here?
Its EC50 is 794 nM.

And the solubility at 24 h [1, 5]?
Its solubility at 24 h is 2 mg/L.

Which results are given for `O=C1NCC2(CCNCC2)c2[nH]c(-c3ccnc(-c4ccc5c(c4)OCO5)n3)cc21` [17_1 Formula (I)]?
pEC50, Formula (I) (MK2 enzyme; MK2 IMAP assay): 8.4; solubility at 24 h [1, 6]: 37 mg/L

With `CCN1CCC2(CC1)CNC(=O)c1cc(-c3ccnc(-c4cc5ccccc5o4)n3)[nH]c12` [2—2, 2′-(2-(benzofuran-2-yl)pyrimidin-4-yl)-1-ethyl-5′,6′-dihydrospiro[piperidine-4,7′-pyrrolo[3,2-c]pyridin]-4(1′H)-one] as the molecule, how does the EC50 (MK2 enzyme) read?
The EC50 was 31.6 to 316 nM.

And the solubility at 24 h [1, 3]?
The solubility at 24 h was no less than 50 mg/L.

Which results are given for `O=C1NCC2(CCNCC2)c2[nH]c(-c3ccnc(-c4cnc(NC5CCCC5)nc4)n3)cc21` [11—1, 2′-(2′-(cyclopentylamino)-2,5′-bipyrimidin-4-yl)-5′,6′-dihydrospiro[piperidine-4,7′-pyrrolo[3,2-c]pyridin]-4′(1′H)-one]?
EC50 (MK2 enzyme; [2]): ≤ 3.16 nM; solubility at 24 h [1, 3]: ≥ 50 mg/L

With `O=C1NCC2(CCNCC2)c2[nH]c(-c3ccnc(-c4ccccc4F)n3)cc21` [16_4 Formula (I)] as the molecule, how does the EC50 (MK2 enzyme; [7]) read?
The EC50 was 31.6 nM.

What about the solubility at 24 h [1, 8] of the same molecule?
The solubility at 24 h was 36 mg/L.

With `O=C1NCC2(CCOCC2)c2[nH]c(-c3ccnc(-c4cnc5ccccc5c4)n3)cc21` [17_2 Formula (XVI)] as the molecule, how does the EC50 (MK2 enzyme; [4]) read?
Its EC50 is 316 nM.

And the solubility at 24 h [1, 5]?
Its solubility at 24 h is 3 mg/L.

With `O=C1NCC2(CCNCC2)c2[nH]c(-c3ccnc(-c4cccc(OC(F)(F)F)c4)n3)cc21` [1—16, 2′-(2-(3-(trifluoromethoxy)phenyl)pyrimidin-4-yl)-5′,6′-dihydrospiro[piperidine-4,7′-pyrrolo[3,2-c]pyridin]-4′(1′H)-one] as the molecule, how does the EC50 (MK2 enzyme; [2]) read?
Its EC50 is 3.16 to 31.6 nM.

And the solubility at 24 h [1, 3]?
Its solubility at 24 h is no less than 50 mg/L.

Which results are given for `NCCN1CCC2(CC1)CNC(=O)c1cc(-c3ccnc(-c4cc5ccccc5o4)n3)[nH]c12` [Example 2—3, 1-(2-aminoethyl)-2′-(2-(benzofuran-2-yl)pyrimidin-4-yl)-5′,6′-dihydrospiro[piperidine-4,7′-pyrrolo[3,2-c]pyridin]-4′(1′H)-one]?
EC50 (MK2 enzyme; [2]): 31.6 to 316 nM; solubility at 24 h [1, 3]: ≥ 50 mg/L

With `O=C1NCC2(CCNCC2)c2[nH]c(-c3ccnc(-c4cnc5ccccc5c4)n3)cc21` [17_2 Formula (I)] as the molecule, how does the “pEC50, Formula (I)” value (MK2 enzyme; MK2 IMAP assay) read?
Its value is 8.2.

And the solubility at 24 h [1, 6]?
Its solubility at 24 h is 23 mg/L.

What does the source list for `CC(=O)c1ccc(-c2nccc(-c3cc4c([nH]3)C3(CCNCC3)CNC4=O)n2)cc1` [16_8 Formula (I)]?
EC50 (MK2 enzyme; [7]): 6.31 nM; solubility at 24 h [1, 8]: 35 mg/L

With `O=C1NCCc2[nH]c(-c3ccnc(-c4ccc5c(c4)OCO5)n3)cc21` [16_5 Formula (XV)] as the molecule, how does the EC50 (MK2 enzyme; Table 1, comparison compound of Formula (XV) without spiro ring, MK2 IMAP assay, read-out: pEC50, Formula (XV) (converted)) read?
Its EC50 is 126 nM.

What about the solubility at 24 h ([1]; Table 1, comparison compound of Formula (XV) without spiro ring, pH 7.4, read-out: Solubility pH 7.4 (mg/L), Formula (XV)) of the same molecule?
Its solubility at 24 h is 5 mg/L.

With `O=C(NC1CCCCC1)c1ccc(-c2nccc(-c3cc4c([nH]3)C3(CCNCC3)CNC4=O)n2)cc1Cl` [1—31, 2-chloro-N-cyclohexyl-4-(4-(4′-oxo-1′,4′,5′,6′-tetrahydrospiro[piperidine-4,7′-pyrrolo[3,2-c]pyridine]-2′-yl)pyrimidin-2-yl)benzamide] as the molecule, how does the EC50 (MK2 enzyme; [2]) read?
Its EC50 is 3.16 to 31.6 nM.

And the solubility at 24 h [1, 3]?
Its solubility at 24 h is no less than 50 mg/L.

What does the source list for `O=C1NCC2(CNCCO2)c2[nH]c(-c3ccnc(-c4cc5ccccc5o4)n3)cc21` (stereo not shown) [7—1, 2′-(2-(benzofuran-2-yl)pyrimidin-4-yl)-5′,6′-dihydrospiro[morpholine-2,7′-pyrrolo[3,2-c]pyridin]-4′(1′H)-one]?
EC50 (MK2 enzyme; [2]): 31.6 to 316 nM; solubility at 24 h [1, 3]: ≥ 50 mg/L

For `O=C(Nc1nccc(-c2cc3c([nH]2)C2(CCCNC2)CNC3=O)n1)c1cccc(OC(F)(F)F)c1` (stereo not shown) [13—2, N-(4-(4′-oxo-1′,4′,5′,6′-tetrahydrospiro[piperidine-3,7′-pyrrolo[3,2-c]pyridine]-2′-yl)pyrimidin-2-yl)-3-(trifluoromethoxy)benzamide], which EC50 (MK2 enzyme; [2]) is on record?
The EC50 was 31.6 to 316 nM.

And the solubility at 24 h [1, 3]?
Its solubility at 24 h is 20 to 50 mg/L (≈ 41.1 to 103 µM).

With `O=C(NC1CCCCC1)c1ccc(-c2nccc(-c3cc4c([nH]3)C3(CCNCC3)CNC4=O)n2)cc1` [1—36, N-cyclohexyl-4-(4-(4′-oxo-1′,4′,5′,6′-tetrahydrospiro[piperidine-4,7′-pyrrolo[3,2-c]pyridine]-2′-yl)pyrimidin-2-yl)benzamide] as the molecule, how does the EC50 (MK2 enzyme; [2]) read?
The EC50 was 3.16 to 31.6 nM.

What about the solubility at 24 h [1, 3] of the same molecule?
The solubility at 24 h was no less than 50 mg/L.

With `O=C1NCC2(CCNCC2)c2[nH]c(-c3ccnc(-c4ccc5c(c4)OCO5)c3)cc21` [8—3, 2′-(2-(benzo[d][1,3]dioxol-5-yl)pyridin-4-yl)-5′,6′-dihydrospiro[piperidine-4,7′-pyrrolo[3,2-c]pyridin]-4′(1′H)-one] as the molecule, how does the EC50 (MK2 enzyme; [2]) read?
The EC50 was no more than 3.16 nM.

What about the solubility at 24 h [1, 3] of the same molecule?
Its solubility at 24 h is no less than 50 mg/L.

Which results are given for `O=C1NCC2(CCNCC2)c2[nH]c(-c3ccnc(-c4cc5ccccc5o4)n3)cc21` [16_6 Formula (I)]?
EC50 (MK2 enzyme; [7]): 6.31 nM; solubility at 24 h [1, 8]: 84 mg/L
